This note sets out measurements from ChEMBL document CHEMBL3132791, “Improved synthesis of 4-/6-substituted 2-carboxy-1H-indole-3-propionic acid derivatives and structureactivity relationships as GPR17 agonists” (Medchemcomm, 2014).

Activity calls are given as the source filed them. The rule behind the calls is not given here.

The target in one experiment is T1, Uracil nucleotide/cysteinyl leukotriene receptor (Homo sapiens, UniProt Q13304). In words: Antagonist activity at human GPR17 receptor transfected in 1321N1 astrocytoma cells assessed as intracellular calcium mobilization by flurometric assay. In kind it is functional, cell-based.
T1 sequence (Q13304 whole entry): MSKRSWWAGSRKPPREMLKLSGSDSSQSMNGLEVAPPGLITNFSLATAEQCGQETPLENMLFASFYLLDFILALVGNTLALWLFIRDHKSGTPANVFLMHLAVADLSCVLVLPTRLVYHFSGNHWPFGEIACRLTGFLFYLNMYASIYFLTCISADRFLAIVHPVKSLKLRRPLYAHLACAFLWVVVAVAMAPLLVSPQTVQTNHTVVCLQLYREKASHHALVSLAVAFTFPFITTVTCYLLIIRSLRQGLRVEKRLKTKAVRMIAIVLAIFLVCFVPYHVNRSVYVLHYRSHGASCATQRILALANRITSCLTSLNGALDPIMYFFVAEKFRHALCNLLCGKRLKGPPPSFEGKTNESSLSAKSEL
Consider `COc1cc(OC)c2c(CCC(=O)O)c(C(=O)O)[nH]c2c1`, for which the result was inactive.

For a further experiment, the target named is T1, Uracil nucleotide/cysteinyl leukotriene receptor. In words: Agonist activity at human GPR17 receptor transfected in 1321N1 astrocytoma cells assessed as induction of intracellular calcium mobilization by fluorimetric assay. In kind it is functional, cell-based.
Turning to `O=C(O)CCc1c(C(=O)O)[nH]c2cc(Cl)cc(Cl)c12`, the EC50 was 0.331 µM. For the compound `O=C(O)CCc1c(C(=O)O)[nH]c2cc(Cl)c(F)c(Cl)c12`, the EC50 amounted to 52 µM. Same read-out and setting: for `O=C(O)CCc1c(C(=O)O)[nH]c2cccc(Br)c12` the value was 45.5 µM; for `O=C(O)CCc1c(C(=O)O)[nH]c2cc(Br)ccc12`, 2.24 µM. Consider `COc1cc(OC)c2c(CCC(=O)O)c(C(=O)O)[nH]c2c1`, for which the EC50 was over 100 µM.

In the case of `O=C(O)CCc1c(C(=O)O)[nH]c2cccc(I)c12`, the EC50 came out at 36.8 µM. The same measure, in the same setting: under `O=C(O)CCc1c(C(=O)O)[nH]c2cc(Br)cc(Br)c12` stands 0.202 µM; under `O=C(O)CCc1c(C(=O)O)[nH]c2cc(C(F)(F)F)cc(C(F)(F)F)c12`, 17.1 µM.
